Laboratory results as given in ChEMBL document CHEMBL2331089, “Characterization, bioinformatic analysis and dithiocarbamate inhibition studies of two new α-carbonic anhydrases, CAH1 and CAH2, from the fruit fly Drosophila melanogaster” (Bioorg Med Chem, 2013).
Structures can show the parent of a compound that is named as a salt.

Tests used:
[1] = biological target: T1, Carbonic anhydrase 1 (Drosophila melanogaster, UniProt Q9V396); assay: Inhibition of Drosophila melanogaster recombinant carbonic anhydrase-1 expressed in Escherichia coli BL21 (DE3) preincubated for 15 mins by CO2 hydration stopped-flow assay
T1 sequence (Q9V396 whole entry): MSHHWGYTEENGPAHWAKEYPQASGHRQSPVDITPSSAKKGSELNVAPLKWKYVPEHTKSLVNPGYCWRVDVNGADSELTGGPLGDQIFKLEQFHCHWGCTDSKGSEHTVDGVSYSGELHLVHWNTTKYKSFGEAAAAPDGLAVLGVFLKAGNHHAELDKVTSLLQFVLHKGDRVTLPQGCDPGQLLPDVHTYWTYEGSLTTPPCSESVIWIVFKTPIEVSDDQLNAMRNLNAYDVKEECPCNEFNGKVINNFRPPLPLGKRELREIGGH

[2] = biological target: T2, Carbonic anhydrase 2, isoform A (Drosophila melanogaster, UniProt Q9VTU8); assay: Inhibition of Drosophila melanogaster recombinant carbonic anhydrase-2 expressed in Escherichia coli BL21 (DE3) preincubated for 15 mins by CO2 hydration stopped-flow assay
T2 sequence (Q9VTU8 whole entry): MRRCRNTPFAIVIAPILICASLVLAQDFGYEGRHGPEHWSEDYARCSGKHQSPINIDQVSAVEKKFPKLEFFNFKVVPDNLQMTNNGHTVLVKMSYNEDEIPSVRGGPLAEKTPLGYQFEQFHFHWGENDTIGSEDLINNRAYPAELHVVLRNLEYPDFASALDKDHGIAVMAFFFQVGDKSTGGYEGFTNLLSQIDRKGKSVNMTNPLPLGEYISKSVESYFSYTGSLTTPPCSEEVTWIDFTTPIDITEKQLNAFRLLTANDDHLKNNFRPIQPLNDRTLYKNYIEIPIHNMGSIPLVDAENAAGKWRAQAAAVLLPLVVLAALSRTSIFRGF

[3] = Inhibition of Drosophila melanogaster recombinant beat carbonic anhydrase expressed in Escherichia coli BL21 (DE3) preincubated for 15 mins by CO2 hydration stopped-flow assay

SMILES | Ki [1] [nM] | Ki [2] [nM] | Ki [3] [nM]
S=C(S)N1CCCC1 | 135 | 4.7 | –
CN1CCN(NC(=S)S)CC1 | 0.9 | 13.8 | –
S=C(S)NCCN1CCOCC1 | 12.1 | 10.4 | –
S=C(S)NCc1ccncc1 | 35.1 | 58.8 | –
S=C(S)NCCN1CCCCC1 | 57.1 | 26.7 | –
O=C(O)CNC(=S)S | 123 | 76.5 | –
OCCN(CCO)C(=S)S | 3.2 | 134 | –
O=C(O)[C@@H]1CCCN1C(=S)S | 1.4 | 13.6 | –
S=C(S)NCCN(CCNC(=S)S)CNC(=S)S | 134 | 1.5 | –
S=C(S)Nc1cccs1 | 0.5 | 3.9 | –
NCCCn1ccnc1.S=C(S)NCCCn1ccnc1 | 0.9 | 24.1 | –
CCC(C)NC(=S)S (racemic) | 325 | 0.9 | –
CC(=O)Nc1nnc(S(N)(=O)=O)s1 [ACETAZOLAMIDE] | – | – | 49
CCCCN(CCCC)C(=S)S [DIBUTYLCARBAMODITHIOATE SODIUM SALT] | 17.1 | 0.5 | –
CCCCCCN(CCCCCC)C(=S)S [DIHEXYLCARBAMODITHIOATE SODIUM SALT] | 1.4 | 3.8 | –
CC(C)CN(CC(C)C)C(=S)S [DIISOBUTYLCARBODITHIOIC ACID SODIUM SALT] | 20.2 | 0.9 | –
CCCN(CCC)C(=S)S [DIPROPYLCARBAMODITHIOATE SODIUM SALT] | 23.4 | 3.9 | –
CCN(CC)C(=S)S [DITIOCARB SODIUM] | 2350 | 654 | –
CCCCN(CC)C(=S)S [ETHYLBUTYLCARBAMODITHIOATE SODIUM SALT] | 10.5 | 21.9 | –
S=C(S)N1CCOCC1 [MORPHOLINECARBAMODITHIOATE SODIUM SALT] | 13.8 | 0.8 | –
S=C(S)N1CCN(C(=S)S)CC1 [PIPERAZINECARBAMODITHIOATE DISODIUM SALT] | 0.9 | 21.6 | –
S=C(S)NN1CCOCC1 [POTASSIUM MORPHOLINOCARBAMODITHIOATE] | 13.1 | 20.7 | –
CN(Cc1ccccc1)C(=S)S [SODIUM BENZYL(METHYL)CARBAMODITHIOATE] | 50.2 | 12.4 | –
S=C(S)NCc1ccccc1 [SODIUM BENZYLCARBAMODITHIOATE] | 0.8 | 213 | –
CN(C)C(=S)S [SODIUM DIMETHYLCARBAMODITHIOATE] | 3460 | 769 | –
CN(C(=S)S)c1ccccc1 [SODIUM METHYL(PHENYL)CARBAMODITHIOATE] | 67.1 | 5.9 | –
S=C(S)Nc1ccccc1 [TRIETHYLAMMONIUM PHENYLCARBAMODITHIOATE] | 21.4 | 33.9 | –
